Common to all, as to type: in vivo
Assay [1] has as its system Japanese bulrush (Scirpus juncoides Roxb.). Nature of the assay: Test Example 1: herbicidal effect by soil application to paddy field. The conditions noted are these: paddy field soil application; active ingredient 1,000 g per 1 hectare; wettable powder added dropwise to water surface the day after sowing; examined on the 21st day after application. Summed up: (§1)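 Plants were sown in flooded (3 cm) paddy soil and evaluated for herbicidal effect 21 days after soil application in a greenhouse.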

Assay [2] deals with early watergrass (Echinochloa oryzicola Vasing). Described as above. The conditions noted are these: paddy field soil application; active ingredient 1,000 g per 1 hectare; wettable powder added dropwise to water surface the day after sowing; examined on the 21st day after application. The procedure, abridged: as §1
Assay [3] has as its system heartshape false pickerelweed (Monochoria vaginalis (Burm.f.) C.Presl). The assay is described as above. The conditions noted are these: paddy field soil application; active ingredient 1,000 g per 1 hectare; wettable powder added dropwise to water surface the day after sowing; examined on the 21st day after application. Summed up: as §1
The test system of assay [4] is barnyardgrass (Echinochloa crus-galli (L.) P. Beauv. var. crus-galli). Description: Test Example 3: herbicidal effect by application to upland field (foliage treatment). The conditions noted are these: foliage treatment, 1,000 g active ingredient per 1 hectare, 14th day after application, greenhouse. The procedure, abridged: (§2)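 Plants were sown in field soil and raised in a greenhouse for two weeks before foliar spraying. A water-diluted wettable powder was applied at 1,000 g active ingredient per hectare in 1,000 liters per hectare. Herbicidal effect was scored on a standard scale 14 days later.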

Assay [5] concerns green foxtail (Setaria viridis (L.) P. Beauv.). The description is as above. The conditions noted are these: foliage treatment, 1,000 g active ingredient per 1 hectare, 14th day after application, greenhouse. Summed up: as §2
The test system of assay [6] is slender amaranth (Amaranthus viridis L.). Described as above. The conditions noted are these: foliage treatment, 1,000 g active ingredient per 1 hectare, 14th day after application, greenhouse. Summed up:
as §2

For assay [7], the system named is velvetleaf (Abutilon theophrasti medicus). The description is as above. The conditions noted are these: foliage treatment, 1,000 g active ingredient per 1 hectare, 14th day after application, greenhouse. The procedure, abridged: as §2

This note sets out measurements from patent US8076487B2, “Pyridone derivative and herbicide” (Kumiai Chemical Industry Co., Ltd., priority 2006, dated 2011).

Molecules are shown by their SMILES.

`CSCCCn1c(C(F)(F)F)ccc(C(=O)C2=C(O)C3CCC(C3)C2=O)c1=O` (centres unmarked) [III-31]: the “herbicidal effect, Scirpus juncoides Roxb.” value in assay [1] is 5 (90% or more of herbicidal effect and crop phytotoxicity). For the same molecule, the “herbicidal effect, Echinochloa oryzicola Vasing” value in assay [2] was 5 (90% or more of herbicidal effect and crop phytotoxicity). Also, the “herbicidal effect, Monochoria vaginalis (Burm. f.) C. Presl” value (“herbicidal effect, Monochoria vaginalis” for short) in assay [3] is 5 (90% or more of herbicidal effect and crop phytotoxicity). The “herbicidal effect, Barnyardgrass” value in assay [4] was 5 (90% or more of herbicidal effect and crop phytotoxicity). The “herbicidal effect, Green Foxtail” value in assay [5] was 5 (90% or more of herbicidal effect and crop phytotoxicity). In addition, the “herbicidal effect, Slender Amaranth” value in assay [6] is 5 (90% or more of herbicidal effect and crop phytotoxicity). In addition, the “herbicidal effect, Velvetleaf” value in assay [7] was 5 (90% or more of herbicidal effect and crop phytotoxicity).
Turning to `O=C(C1=C(O)C2C=CC(C2)C1=O)c1ccc(C(F)(F)F)n(CC2CCCO2)c1=O` (centres unmarked) [III-43], the “herbicidal effect, Scirpus juncoides Roxb.” value in assay [1] was 5 (90% or more of herbicidal effect and crop phytotoxicity). The “herbicidal effect, Echinochloa oryzicola Vasing” value in assay [2] was 5 (90% or more of herbicidal effect and crop phytotoxicity). In assay [3], the “herbicidal effect, Monochoria vaginalis” value was 5 (90% or more of herbicidal effect and crop phytotoxicity). Besides, in assay [4], the “herbicidal effect, Barnyardgrass” value was 5 (90% or more of herbicidal effect and crop phytotoxicity). Also, the “herbicidal effect, Green Foxtail” value in assay [5] was 3 (50 to less than 70% of herbicidal effect and crop phytotoxicity). For the same molecule, the “herbicidal effect, Slender Amaranth” value in assay [6] was 5 (90% or more of herbicidal effect and crop phytotoxicity). The “herbicidal effect, Velvetleaf” value in assay [7] was 5 (90% or more of herbicidal effect and crop phytotoxicity).
Consider `COCC(C)n1c(C(F)(F)F)ccc(C(=O)C2=C(O)C3C=CC(C3)C2=O)c1=O` (centres unmarked) [III-44], for which the “herbicidal effect, Scirpus juncoides Roxb.” value in assay [1] was 5 (90% or more of herbicidal effect and crop phytotoxicity). Moreover, the “herbicidal effect, Echinochloa oryzicola Vasing” value in assay [2] is 5 (90% or more of herbicidal effect and crop phytotoxicity). Besides, in assay [3], the “herbicidal effect, Monochoria vaginalis” value was 5 (90% or more of herbicidal effect and crop phytotoxicity). Moreover, the “herbicidal effect, Barnyardgrass” value in assay [4] is 4 (70 to less than 90% of herbicidal effect and crop phytotoxicity). Further, the “herbicidal effect, Green Foxtail” value in assay [5] was 5 (90% or more of herbicidal effect and crop phytotoxicity). The “herbicidal effect, Slender Amaranth” value in assay [6] is 5 (90% or more of herbicidal effect and crop phytotoxicity). Moreover, in assay [7], the “herbicidal effect, Velvetleaf” value was 5 (90% or more of herbicidal effect and crop phytotoxicity).
On to `C=CCn1c(C(F)(F)F)ccc(C(=O)c2cnn(CC)c2OS(=O)(=O)CCC)c1=O` [IV-12], for which the “herbicidal effect, Scirpus juncoides Roxb.” value in assay [1] is 5 (90% or more of herbicidal effect and crop phytotoxicity). Also, the “herbicidal effect, Echinochloa oryzicola Vasing” value in assay [2] was 5 (90% or more of herbicidal effect and crop phytotoxicity). Moreover, the “herbicidal effect, Monochoria vaginalis” value in assay [3] is 5 (90% or more of herbicidal effect and crop phytotoxicity). For the same molecule, in assay [4], the “herbicidal effect, Barnyardgrass” value is 5 (90% or more of herbicidal effect and crop phytotoxicity). In addition, the “herbicidal effect, Green Foxtail” value in assay [5] is 4 (70 to less than 90% of herbicidal effect and crop phytotoxicity). For the same molecule, the “herbicidal effect, Slender Amaranth” value in assay [6] is 5 (90% or more of herbicidal effect and crop phytotoxicity). In addition, in assay [7], the “herbicidal effect, Velvetleaf” value is 5 (90% or more of herbicidal effect and crop phytotoxicity).
For the molecule `C=C(C)Cn1c(C(F)(F)F)ccc(C(=O)c2cnn(C)c2O)c1=O` [IV-13], the “herbicidal effect, Scirpus juncoides Roxb.” value in assay [1] is 5 (90% or more of herbicidal effect and crop phytotoxicity). The “herbicidal effect, Echinochloa oryzicola Vasing” value in assay [2] is 5 (90% or more of herbicidal effect and crop phytotoxicity). Also, in assay [3], the “herbicidal effect, Monochoria vaginalis” value is 5 (90% or more of herbicidal effect and crop phytotoxicity). Also, in assay [4], the “herbicidal effect, Barnyardgrass” value was 5 (90% or more of herbicidal effect and crop phytotoxicity). Besides, the “herbicidal effect, Green Foxtail” value in assay [5] was 5 (90% or more of herbicidal effect and crop phytotoxicity). Moreover, the “herbicidal effect, Slender Amaranth” value in assay [6] was 5 (90% or more of herbicidal effect and crop phytotoxicity). For the same molecule, in assay [7], the “herbicidal effect, Velvetleaf” value is 5 (90% or more of herbicidal effect and crop phytotoxicity).
For `CC(C)=CCCn1c(C(F)(F)F)ccc(C(=O)c2cnn(C)c2O)c1=O` [IV-15], the “herbicidal effect, Scirpus juncoides Roxb.” value in assay [1] was 5 (90% or more of herbicidal effect and crop phytotoxicity). The “herbicidal effect, Echinochloa oryzicola Vasing” value in assay [2] was 5 (90% or more of herbicidal effect and crop phytotoxicity). Moreover, the “herbicidal effect, Monochoria vaginalis” value in assay [3] is 5 (90% or more of herbicidal effect and crop phytotoxicity). In addition, the “herbicidal effect, Barnyardgrass” value in assay [4] was 4 (70 to less than 90% of herbicidal effect and crop phytotoxicity). Moreover, the “herbicidal effect, Green Foxtail” value in assay [5] was 5 (90% or more of herbicidal effect and crop phytotoxicity). Besides, in assay [6], the “herbicidal effect, Slender Amaranth” value is 5 (90% or more of herbicidal effect and crop phytotoxicity). Also, in assay [7], the “herbicidal effect, Velvetleaf” value was 5 (90% or more of herbicidal effect and crop phytotoxicity).
Take `Cn1ncc(C(=O)c2ccc(C(F)(F)F)n(CCC[S+](C)[O-])c2=O)c1O` (centres unmarked) [IV-58]: the “herbicidal effect, Scirpus juncoides Roxb.” value in assay [1] was 4 (70 to less than 90% of herbicidal effect and crop phytotoxicity). In addition, in assay [2], the “herbicidal effect, Echinochloa oryzicola Vasing” value was 5 (90% or more of herbicidal effect and crop phytotoxicity). For the same molecule, the “herbicidal effect, Monochoria vaginalis” value in assay [3] is 4 (70 to less than 90% of herbicidal effect and crop phytotoxicity). Further, the “herbicidal effect, Barnyardgrass” value in assay [4] is 5 (90% or more of herbicidal effect and crop phytotoxicity). Also, the “herbicidal effect, Green Foxtail” value in assay [5] is 4 (70 to less than 90% of herbicidal effect and crop phytotoxicity). In assay [6], the “herbicidal effect, Slender Amaranth” value was 5 (90% or more of herbicidal effect and crop phytotoxicity). In assay [7], the “herbicidal effect, Velvetleaf” value was 4 (70 to less than 90% of herbicidal effect and crop phytotoxicity).
With `Cn1ncc(C(=O)c2ccc(C(F)(F)F)n(-c3ccc(Cl)cc3)c2=O)c1O` [IV-63], the “herbicidal effect, Scirpus juncoides Roxb.” value in assay [1] is 5 (90% or more of herbicidal effect and crop phytotoxicity). Besides, the “herbicidal effect, Echinochloa oryzicola Vasing” value in assay [2] was 5 (90% or more of herbicidal effect and crop phytotoxicity). The “herbicidal effect, Monochoria vaginalis” value in assay [3] is 5 (90% or more of herbicidal effect and crop phytotoxicity). Moreover, the “herbicidal effect, Barnyardgrass” value in assay [4] was 4 (70 to less than 90% of herbicidal effect and crop phytotoxicity). For the same molecule, the “herbicidal effect, Green Foxtail” value in assay [5] was 4 (70 to less than 90% of herbicidal effect and crop phytotoxicity). For the same molecule, the “herbicidal effect, Slender Amaranth” value in assay [6] is 5 (90% or more of herbicidal effect and crop phytotoxicity). In addition, the “herbicidal effect, Velvetleaf” value in assay [7] is 5 (90% or more of herbicidal effect and crop phytotoxicity).
Turning to `Cn1ncc(C(=O)c2ccc(C(F)(F)F)n(-c3ccc(OC(F)(F)F)cc3)c2=O)c1O` [IV-67], the “herbicidal effect, Scirpus juncoides Roxb.” value in assay [1] was 5 (90% or more of herbicidal effect and crop phytotoxicity). In addition, in assay [2], the “herbicidal effect, Echinochloa oryzicola Vasing” value is 5 (90% or more of herbicidal effect and crop phytotoxicity). Moreover, the “herbicidal effect, Monochoria vaginalis” value in assay [3] was 5 (90% or more of herbicidal effect and crop phytotoxicity). Further, the “herbicidal effect, Barnyardgrass” value in assay [4] was 4 (70 to less than 90% of herbicidal effect and crop phytotoxicity). For the same molecule, in assay [5], the “herbicidal effect, Green Foxtail” value was 4 (70 to less than 90% of herbicidal effect and crop phytotoxicity). For the same molecule, the “herbicidal effect, Slender Amaranth” value in assay [6] was 5 (90% or more of herbicidal effect and crop phytotoxicity). Further, in assay [7], the “herbicidal effect, Velvetleaf” value is 5 (90% or more of herbicidal effect and crop phytotoxicity).
Turning to `Cn1ncc(C(=O)c2ccc(C(F)(F)F)n(-c3cccc(S(C)(=O)=O)c3)c2=O)c1O` [IV-74], the “herbicidal effect, Scirpus juncoides Roxb.” value in assay [1] was 5 (90% or more of herbicidal effect and crop phytotoxicity). Besides, in assay [2], the “herbicidal effect, Echinochloa oryzicola Vasing” value is 4 (70 to less than 90% of herbicidal effect and crop phytotoxicity). The “herbicidal effect, Monochoria vaginalis” value in assay [3] is 4 (70 to less than 90% of herbicidal effect and crop phytotoxicity). Besides, the “herbicidal effect, Barnyardgrass” value in assay [4] is 4 (70 to less than 90% of herbicidal effect and crop phytotoxicity). In assay [5], the “herbicidal effect, Green Foxtail” value was 4 (70 to less than 90% of herbicidal effect and crop phytotoxicity). Further, in assay [6], the “herbicidal effect, Slender Amaranth” value was 5 (90% or more of herbicidal effect and crop phytotoxicity). Also, the “herbicidal effect, Velvetleaf” value in assay [7] is 5 (90% or more of herbicidal effect and crop phytotoxicity).
Turning to `COc1ccc(-n2c(C(F)(F)F)ccc(C(=O)c3cnn(C)c3O)c2=O)cc1OC` [IV-77], the “herbicidal effect, Scirpus juncoides Roxb.” value in assay [1] is 5 (90% or more of herbicidal effect and crop phytotoxicity). For the same molecule, the “herbicidal effect, Echinochloa oryzicola Vasing” value in assay [2] was 5 (90% or more of herbicidal effect and crop phytotoxicity). In addition, in assay [3], the “herbicidal effect, Monochoria vaginalis” value was 5 (90% or more of herbicidal effect and crop phytotoxicity). Besides, the “herbicidal effect, Barnyardgrass” value in assay [4] was 5 (90% or more of herbicidal effect and crop phytotoxicity). Besides, the “herbicidal effect, Green Foxtail” value in assay [5] was 3 (50 to less than 70% of herbicidal effect and crop phytotoxicity). Besides, the “herbicidal effect, Slender Amaranth” value in assay [6] was 5 (90% or more of herbicidal effect and crop phytotoxicity). Also, in assay [7], the “herbicidal effect, Velvetleaf” value was 5 (90% or more of herbicidal effect and crop phytotoxicity).
